Where two headings read alike, the source gives them in different places.
What was measured:
[1] = test system: NCI-H929 cell lines; test: In vitro cytotoxicity, CellTiter-Glo (CTG) assay (Example B, Method B); format: cell-based; details: NCI-H929 cells, 48 h incubation, read-out: C50
Protocol: Cellular viability was monitored with the cell viability assay (Cell Titer-Glo®) on NCI-H929 cell lines. The CellTiter-Glo® (CTG) Luminescent Cell Viability Assay (from Promega) is a homogeneous method to determine the number of viable cells in culture based on quantitation of the ATP present, which signals the presence of metabolically active cells.
Concentration response of test compounds are performed with 10 mM stock solutions (DMSO), 11-points curve, in a 384-well compound plate. The assay plate is prepared by stamping 120 nL from compound dilution plate of all different concentrations (e.g. 10 mM to have final 30 μM assay test) into a cell culture microplate, using Echo acoustic liquid handling (Labcyte, Beckman). 40 μl of cell solution is added and cells are incubated with compounds for 48 h at 37° C., 5% CO2. CTG was added to the cells (according to the manufacturer instructions) and luminescence intensity was recorded using the Pherastar plate reader (BMG).
This assay provides in vitro cellular efficacy of compounds of Formula (I) tested, measuring the C50, defined as the concentration needed to reach 50% of the cellular viability.

[2] = target: Cy5-labelled Mcl1 (amino acids 171-321) C286S protein (UniProtKB Q07820) (Homo sapiens (Human), UniProt Q07820, C286S); test: Inhibition of Mcl-1 by the fluorescence quenching assay (Example A, Method B); format: binding
Sequence of Cy5-labelled Mcl1 (amino acids 171-321) C286S protein (Q07820 171-321 C286S): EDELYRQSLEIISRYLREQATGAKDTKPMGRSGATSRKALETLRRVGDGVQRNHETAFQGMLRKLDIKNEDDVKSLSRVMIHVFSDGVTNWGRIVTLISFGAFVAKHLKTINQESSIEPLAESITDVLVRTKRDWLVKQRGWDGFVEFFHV
Outline: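 Eleven-point compound series incubated 2 h at room temperature with 1 nM Cy5-tagged protein and quencher-labelled PUMA peptide at 10, 20 or 400 nM in HEPES/NaCl/Tween 20, pH 7.4, 5% DMSO. IC50 for 50% fluorescence increase by 4-parameter fit, then Ki derived (complete cKi or estimated eKi).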

Compound `COc1cc2c(cc1F)CN(C[C@@H](C)COc1ccnc3c1[C@H](C)CCC3)[C@]21CC[C@](Nc2cccc(Cl)c2)(C(=O)O)CC1` [Example 43, (1s,4S)-4-(3-chloroanilino)-5′-fluoro-6′-methoxy-2′-[(2R)-2-methyl-3-{[(5R)-5-methyl-5,6,7,8-tetrahydroquinolin-4-yl]oxy}propyl]-2′,3′-dihydrospiro[cyclohexane-1,1′-isoindole]-4-carboxylic acid] has an IC50 ([1]; Homo sapiens, NCI-H929, 48 h) of 162 nM and a Ki ([2]; Ki determined from IC50) of 0.25 nM.
Compound `C[C@@H](COc1ccnc2c1[C@H](C)CCC2)C[C@@H]1Cc2ccc(-c3cc[nH]c3)cc2[C@]12CC[C@@](Nc1cccc(Cl)c1)(C(=O)O)CC2` [Example 882, (1r,2′R,4R)-4-(3-chloroanilino)-2′-[(2R)-2-methyl-3-{[(5R)-5-methyl-5,6,7,8-tetrahydroquinolin-4-yl]oxy}propyl]-6′-(1H-pyrrol-3-yl)-2′,3′-dihydrospiro[cyclohexane-1,1′-indene]-4-carboxylic acid] has an IC50 ([1]; Homo sapiens, NCI-H929, 48 h) of 1300 nM and a Ki [2] of 1.84 nM.
`C[C@@H](COc1ccnc2c1[C@H](C)CCC2)C[C@H]1Cc2cc3c(cc2[C@]12CC[C@@](Nc1cccc(Cl)c1)(C(=O)O)CC2)OC(F)(F)O3` [Example 849, (1r,4S,6′S)-4-(3-chloroanilino)-2′,2′-difluoro-6′-[(2R)-2-methyl-3-{[(5R)-5-methyl-5,6,7,8-tetrahydroquinolin-4-yl]oxy}propyl]-6′,7′-dihydro-2′H-spiro[cyclohexane-1,5′-indeno[5,6-d][1,3]dioxole]-4-carboxylic acid] showed an IC50 ([1]; Homo sapiens, NCI-H929, 48 h) of 90.5 nM and a Ki [2] of 0.228 nM.
`COc1cc2c(cc1OC)[C@]1(CC[C@@](Nc3cccc(Cl)c3)(C(=O)O)CC1)[C@@H](C[C@@H](C)COc1ccnc3c1[C@H](C)CCC3)C2` [Example 835, (1r,2′S,4S)-4-(3-chloroanilino)-5′,6′-dimethoxy-2′-[(2R)-2-methyl-3-{[(5R)-5-methyl-5,6,7,8-tetrahydroquinolin-4-yl]oxy}propyl]-2′,3′-dihydrospiro[cyclohexane-1,1′-indene]-4-carboxylic acid] gave an IC50 ([1]; Homo sapiens, NCI-H929, 48 h) of 146 nM and a Ki [2] of 0.438 nM.
In the case of `C[C@@H](COc1ccnc2c1[C@H](C)CCC2)CN1Cc2cc3c(cc2[C@]12CC[C@](Nc1ccc(F)c(Cl)c1)(C(=O)O)CC2)OCO3` [Example 48, (1r,4R)-4-(3-chloro-4-fluoroanilino)-6′-[(2R)-2-methyl-3-{[(5R)-5-methyl-5,6,7,8-tetrahydroquinolin-4-yl]oxy}propyl]-6′,7′-dihydro-2′H-spiro[cyclohexane-1,5′-[1,3]dioxolo[4,5-f]isoindole]-4-carboxylic acid], the IC50 ([1]; Homo sapiens, NCI-H929, 48 h) is reported as 21500 nM and the Ki ([2]; Ki determined from IC50) is reported as 104 nM.
`C[C@@H](COc1ccnc2c1[C@H](C)CCC2)C[C@H]1Cc2ccccc2[C@]12CC[C@@](Oc1cccc(Cl)c1)(C(=O)O)CC2` [Example 717, (1r,2′S,4S)-4-(3-chlorophenoxy)-2′-[(2R)-2-methyl-3-{[(5R)-5-methyl-5,6,7,8-tetrahydroquinolin-4-yl]oxy}propyl]-2′,3′-dihydrospiro[cyclohexane-1,1′-indene]-4-carboxylic acid] was tested, and the IC50 ([1]; Homo sapiens, NCI-H929, 48 h) was 367 nM and the Ki [2] was 2.28 nM.
`CC[C@H]1COc2cc3c(cc2O1)[C@]1(CC[C@@](Nc2cccc(Cl)c2)(C(=O)O)CC1)[C@@H](C[C@@H](C)COc1ccnc2c1[C@H](C)CCC2)C3` [Example 977, (1r,3'S,4S,7′S)-4-(3-chloroanilino)-3′-ethyl-7′-[(2R)-2-methyl-3-{[(5R)-5-methyl-5,6,7,8-tetrahydroquinolin-4-yl]oxy}propyl]-2′,3′,7′,8′-tetrahydrospiro[cyclohexane-1,6′-indeno[5,6-b][1,4]dioxine]-4-carboxylic acid] gave an IC50 ([1]; Homo sapiens, NCI-H929, 48 h) of 56 nM and a Ki [2] of 0.0231 nM.
`COc1cc2c(cc1C)C[C@H](C[C@@H](C)COc1ccnc3c1[C@H](C)CCC3)[C@]21CC[C@](Nc2cccc(Cl)c2)(C(=O)O)CC1` [Example 813, (1r,2′S,4S)-4-(3-chloroanilino)-6′-methoxy-5′-methyl-2′-[(2R)-2-methyl-3-{[(5R)-5-methyl-5,6,7,8-tetrahydroquinolin-4-yl]oxy}propyl]-2′,3′-dihydrospiro[cyclohexane-1,1′-indene]-4-carboxylic acid] showed an IC50 ([1]; Homo sapiens, NCI-H929, 48 h) of 184 nM and a Ki [2] of 0.0908 nM.
`C[C@@H](COc1ccnc2c1[C@H](C)CCC2)C[C@H]1Cc2ccc(OCC(F)(F)F)cc2[C@]12CC[C@@](Nc1cccc(Cl)c1)(C(=O)O)CC2` [Example 792, (1r,2′S,4S)-4-(3-chloroanilino)-2′-[(2R)-2-methyl-3-{[(5R)-5-methyl-5,6,7,8-tetrahydroquinolin-4-yl]oxy}propyl]-6′-(2,2,2-trifluoroethoxy)-2′,3′-dihydrospiro[cyclohexane-1,1′-indene]-4-carboxylic acid] gave an IC50 ([1]; Homo sapiens, NCI-H929, 48 h) of 143 nM and a Ki [2] of 0.469 nM.
In the case of `C[C@@H](COc1ccnc2c1[C@H](C)CCC2)C[C@H]1Cc2cc3c(cc2[C@]12CC[C@@](Nc1cccc(Cl)c1)(C(=O)O)CC2)OCC3` [Example 850, (1r,4S,6′S)-4-(3-chloroanilino)-6′-[(2R)-2-methyl-3-{[(5R)-5-methyl-5,6,7,8-tetrahydroquinolin-4-yl]oxy}propyl]-2′,3′,5′,6′-tetrahydrospiro[cyclohexane-1,7′-indeno[5,6-b]furan]-4-carboxylic acid], the IC50 ([1]; Homo sapiens, NCI-H929, 48 h) is reported as 50.9 nM and the Ki [2] is reported as 0.0173 nM.
With `COc1ccccc1-c1ccc2c(c1)[C@]1(CC[C@@](Nc3cccc(Cl)c3)(C(=O)O)CC1)[C@@H](C[C@@H](C)COc1ccnc3c1[C@H](C)CCC3)C2` [Example 876, (1r,2′S,4S)-4-(3-chloroanilino)-6′-(2-methoxyphenyl)-2′-[(2R)-2-methyl-3-{[(5R)-5-methyl-5,6,7,8-tetrahydroquinolin-4-yl]oxy}propyl]-2′,3′-dihydrospiro[cyclohexane-1,1′-indene]-4-carboxylic acid] the IC50 ([1]; Homo sapiens, NCI-H929, 48 h) was 307 nM and the Ki [2] was 0.399 nM.
With `COCc1cc2c(cc1F)CN(C[C@@H](C)COc1ccnc3c1[C@H](C)CCC3)[C@]21CC[C@](Nc2cccc(Cl)c2)(C(=O)O)CC1` [Example 51, (1s,4S)-4-(3-chloroanilino)-5′-fluoro-6′-(methoxymethyl)-2′-[(2R)-2-methyl-3-{[(5R)-5-methyl-5,6,7,8-tetrahydroquinolin-4-yl]oxy}propyl]-2′,3′-dihydrospiro[cyclohexane-1,1′-isoindole]-4-carboxylic acid] the IC50 ([1]; Homo sapiens, NCI-H929, 48 h) was 37.7 nM and the Ki ([2]; Ki determined from IC50) was 0.0762 nM.
In the case of `CCC1COc2cc3c(cc2OC1)[C@]1(CC[C@@](Nc2cccc(Cl)c2)(C(=O)O)CC1)[C@@H](C[C@@H](C)COc1ccnc2c1[C@H](C)CCC2)C3` (single isomer, unassigned) [Example 988], the IC50 [1] is reported as 204 nM and the Ki [2] is reported as 0.0323 nM.
With `CC(C)[C@@H]1CCOc2cc3c(cc2O1)C[C@H](C[C@@H](C)COc1ccnc2c1[C@H](C)CCC2)[C@]31CC[C@](Nc2cccc(Cl)c2)(C(=O)O)CC1` [Example 997, (1r,2′S,4S,8′S)-4-(3-chloroanilino)-8′-[(2R)-2-methyl-3-{[(5R)-5-methyl-5,6,7,8-tetrahydroquinolin-4-yl]oxy}propyl]-2′-(propan-2-yl)-3′,4′,8′,9′-tetrahydro-2′H-spiro[cyclohexane-1,7′-indeno[5,6-b][1,4]dioxepine]-4-carboxylic acid] the IC50 ([1]; Homo sapiens, NCI-H929, 48 h) was 965 nM and the Ki [2] was 4.15 nM.
`C[C@@H](COc1ccnc2c1[C@H](C)CCC2)C[C@H]1Cc2cc3c(cc2[C@]12CC[C@@](Nc1cccc(Cl)c1)(C(=O)OCCN(C)C)CC2)OCO3` [Example 935, 2-(dimethylamino)ethyl (1r,4S,6′S)-4-(3-chloroanilino)-6′-[(2R)-2-methyl-3-{[(5R)-5-methyl-5,6,7,8-tetrahydroquinolin-4-yl]oxy}propyl]-6′,7′-dihydro-2′H-spiro[cyclohexane-1,5′-indeno[5,6-d][1,3]dioxole]-4-carboxylate] showed an IC50 ([1]; Homo sapiens, NCI-H929, 48 h) of 1900 nM and a Ki [2] of 5.46 nM.
`C[C@@H](COc1ccnc2c1[C@H](C)CCC2)C[C@H]1Cc2cc3c(cc2[C@]12CC[C@@](Nc1cccc(Cl)c1)(C(=O)O)CC2)OCC1(CCC1)CO3` [Example 995, (1″r,4″S,8′S)-4″-(3-chloroanilino)-8′-[(2R)-2-methyl-3-{[(5R)-5-methyl-5,6,7,8-tetrahydroquinolin-4-yl]oxy}propyl]-8′,9′-dihydro-2′H,4′H-dispiro[cyclobutane-1,3′-indeno[5,6-b][1,4]dioxepine-7′,1″-cyclohexane]-4″-carboxylic acid] was tested, and the IC50 ([1]; Homo sapiens, NCI-H929, 48 h) was 108 nM and the Ki [2] was 0.0885 nM.
`CCN(CC)C(=O)OCOC(=O)[C@]1(Nc2cccc(Cl)c2)CC[C@@]2(CC1)c1cc3c(cc1C[C@@H]2C[C@@H](C)COc1ccnc2c1[C@H](C)CCC2)OCO3` [Example 950, [(diethylcarbamoyl)oxy]methyl (1r,4S,6′S)-4-(3-chloroanilino)-6′-[(2R)-2-methyl-3-{[(5R)-5-methyl-5,6,7,8-tetrahydroquinolin-4-yl]oxy}propyl]-6′,7′-dihydro-2′H-spiro[cyclohexane-1,5′-indeno[5,6-d][1,3]dioxole]-4-carboxylate] gave an IC50 ([1]; Homo sapiens, NCI-H929, 48 h) of over 30000 nM and an inhibition at 1 µM ([2]; @ 1 μM, read-out: Mcl-1 inhibition, % at a single concentration) of 7.1%.
`CCC1Oc2cc3c(cc2O1)[C@]1(CC[C@@](Nc2cccc(Cl)c2)(C(=O)O)CC1)[C@@H](C[C@@H](C)COc1ccnc2c1[C@H](C)CCC2)C3` (single isomer, unassigned) [Example 968] was tested, and the IC50 [1] was 72.7 nM and the Ki [2] was 0.0405 nM.
